Measurements as given in publication PMC9769880, “Diverse Sensory Repertoire of Paralogous Chemoreceptors Tlp2, Tlp3, and Tlp4 in Campylobacter jejuni” (Microbiology Spectrum, 2022).
Read-outs that look alike come from different tables or passages of the source.

Experiments:
[1] = system: WT Tlp3^LBD; assay: SPR competition assay (A-B-A inject); assay type: binding, Campylobacter jejuni; conditions: 15 seconds after injection-B; glucose 300 µM, fucose 300 μM, malic acid 200 μM
Experimental: . Competition A-B-A analyses determine the specificity of the potential ligand-binding site preferences of WT Tlp3^LBD. The bound protein is saturated with the first analyte (A), followed by the introduction of a second analyte (B); the assay is designed to show whether a cumulative response is observed after the second analyte (B) is added. A cumulative response indicates two independent binding sites, whereas the lack of a cumulative response indicates a single site where ligands compete for binding, i.e., when analyte A occupies a ligand binding site, analyte B cannot bind. […] All response data were normalized to a 100-Da molecular weight for each analyte, allowing direct comparison of the responses. Both actual RU values and theoretical values are recorded for comparison.
Figure S6. […] A) Injections are […]
at 300 μM for 60 seconds). Final responses units (RU) of injections are recorded (indicated by dashed vertical […]
81 at 15 s econds after injection- B and l fu cose […]
and fucose were compet ed was 4.4 RU ± 0.46. As this value sits be low 5 RU, it indicates direct competition for […]
Final respons es units (RU) of injections ar e re cor ded (indicated […]
As this value sits between
5.07- 13.5 RU, it indicates direct competition for the same site with glucos e replacing some of the bound malic acid during the 60 second injection- B.

[2] = target: Tlp3^LBD D196A (Campylobacter jejuni, UniProt Q0P864, D196A); assay: biochemical
Tlp3^LBD D196A, sequence (Q0P864 41-290 D196A): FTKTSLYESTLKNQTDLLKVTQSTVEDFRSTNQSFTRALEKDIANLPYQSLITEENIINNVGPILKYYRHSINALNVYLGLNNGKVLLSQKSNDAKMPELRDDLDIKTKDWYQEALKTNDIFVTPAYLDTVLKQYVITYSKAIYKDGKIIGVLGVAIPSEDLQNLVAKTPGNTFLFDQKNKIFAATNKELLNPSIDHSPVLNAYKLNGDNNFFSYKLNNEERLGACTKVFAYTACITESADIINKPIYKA

[3] = target: Tlp3^LBD W151A (Campylobacter jejuni, UniProt Q0P864, W151A); assay: biochemical
Tlp3^LBD W151A, sequence (Q0P864 41-290 W151A): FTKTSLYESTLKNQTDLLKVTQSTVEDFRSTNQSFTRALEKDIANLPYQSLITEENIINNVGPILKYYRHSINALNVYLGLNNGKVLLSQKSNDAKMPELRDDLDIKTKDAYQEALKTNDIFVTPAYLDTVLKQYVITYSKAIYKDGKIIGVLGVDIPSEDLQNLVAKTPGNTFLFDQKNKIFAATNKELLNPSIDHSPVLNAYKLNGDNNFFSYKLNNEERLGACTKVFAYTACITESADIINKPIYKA

[4] = target: Tlp3^LBD D170A (Campylobacter jejuni, UniProt Q0P864); assay: biochemical
Tlp3^LBD D170A, sequence (Q0P864 41-290 T170A): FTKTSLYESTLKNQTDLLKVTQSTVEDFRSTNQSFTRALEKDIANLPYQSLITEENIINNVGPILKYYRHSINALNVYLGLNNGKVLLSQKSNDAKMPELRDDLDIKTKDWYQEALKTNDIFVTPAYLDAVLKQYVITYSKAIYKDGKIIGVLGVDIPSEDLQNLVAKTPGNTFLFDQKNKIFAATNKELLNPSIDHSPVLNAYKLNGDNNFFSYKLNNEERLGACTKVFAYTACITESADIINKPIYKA

[5] = target: Tlp2 (Campylobacter jejuni, UniProt Q0PBZ3); assay type: binding; conditions: yes/no binding
Tlp2 (Campylobacter jejuni, UniProt Q0PBZ3), sequence (Q0PBZ3 entry or part of it): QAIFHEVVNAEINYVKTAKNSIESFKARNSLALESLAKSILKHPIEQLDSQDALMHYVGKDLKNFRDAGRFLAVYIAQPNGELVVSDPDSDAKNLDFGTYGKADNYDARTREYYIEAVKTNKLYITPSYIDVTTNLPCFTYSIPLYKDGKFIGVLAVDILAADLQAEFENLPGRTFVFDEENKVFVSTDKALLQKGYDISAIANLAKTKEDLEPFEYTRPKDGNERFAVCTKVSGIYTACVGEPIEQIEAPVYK
Experimental: (§1) Glycan (>400 monosaccharides or complex glycans) and small molecule arrays containing amino acids and salts were performed as described previously by Day et al. ([67]). Briefly, 1 μg of purified recombinant protein was complexed with anti-His antibody (Cell Signaling Technology) and rabbit anti-mouse/goat anti-rabbit Alexa 555-IgG (Thermo Scientific) at a molar ratio of 1:0.5:0.25 and then incubated on the array for […] in phosphate-buffered saline (PBS). The array slides were scanned at 488/520 nm and analyzed using InnoScan 1100 with MAPIX software. All arrays were performed in triplicate with a total of 12 data points for each glycan tested; the complete data set and MIRAGE (i.e., minimum information regarding a glycomics experiment) results are shown in Tables S3 and S8.
(§2) Table S8 - Supplementary glycan microarray document based on M IRAGE guidelines. D O I:
(§3) Classification Guidelines
(§4) 1. Sample: Glycan Binding Sample
(§5) Origin: Helicobacter pylori SS1; produced as a recombinant His - tagged protein in E.
(§6) The preparation of Tlp2,3, and 4 is explained in the Materials and Methods section:
(§7) Expression and purification of the periplasmic domain of Tlp2,3, and 4.
(§8) Sample Sample is a His Tagged protein containing only the periplasmic receptor domain of the modifications full length Tlp2,3, and 4transmembrane protein.
(§9) Please see Materials and Methods: Tlps 2/3/4 bind to a range of ligands, including […]
(§10) Proteins were complexed with mouse anti- his antibody, with secondary and tertiary AlexaFluor555 antibodies (rabbit anti-mouse, goat anti-rabbit) at a molar ratio of 4:2:1.
(§11) The protein/antibody complex was incubated on ice for 10 mins prior to placing on the Assay protocol array. Arrays were performed with 1 µg of complexed protein incubated on the array for 20 min. Arrays were then washed 3 times in Array PBS (PBS + 2mM MgCl2 + 2mM CaCl2) then dried by centrifugation for 3 min at 300 x g . Scanning was performed us ing an Innopsys InnoScan 1100AL and analyzed using Mapix (Innopsys). Yes/no binding was determined by six positive replicate spots in three replicate experiments. Positive […]
(§12) Glycan Glycans in this study are listed in Table S2 and is a published library in doi:
(§13) Glycans were prepared in one of two ways for printing:
(§14) Glycan 1. Glycans (with IDs in number/letter format; e.g. 1A, 4C, 7K) were sourced modifications commercially from Dextra Laboratories, Elicityl and Carbosythn and were made into glycoamines using the protocol published in Day et al 2009 (doi:
(§15) Glycan arrays: We only use glycan arrays as a yes/no binding tool. Due to this we look only at binding that is unambiguously above background vs lack of binding above background. Average background + 3x standard deviation of the background of 20 sets of 4 spots of DMF:DMSO only spots is applied to determine if binding observed is […]
(§16) Only spots with values equal to or greater than this value were considered as binding from data of any tested slide. These values are slide […]
(§17) Data Small molecule arrays: We only use amino acid arrays as a yes/no binding tool. Due interpretation to this we look only at binding that is unambiguously above background vs lack of binding above background. Average background + 3x standard deviation of the background of 6 spots of PBS + 2% glycerol only spots is applied to determine if […]
(§18) Only spots with values equal to or greater than this value were considered as binding from data of any tested slide. These values are slide dependent. […]

[6] = target: Tlp4 (Campylobacter jejuni, UniProt Q0PBP3); assay type: binding; conditions: yes/no binding
Tlp4 (Campylobacter jejuni, UniProt Q0PBP3), sequence (Q0PBP3 entry or part of it): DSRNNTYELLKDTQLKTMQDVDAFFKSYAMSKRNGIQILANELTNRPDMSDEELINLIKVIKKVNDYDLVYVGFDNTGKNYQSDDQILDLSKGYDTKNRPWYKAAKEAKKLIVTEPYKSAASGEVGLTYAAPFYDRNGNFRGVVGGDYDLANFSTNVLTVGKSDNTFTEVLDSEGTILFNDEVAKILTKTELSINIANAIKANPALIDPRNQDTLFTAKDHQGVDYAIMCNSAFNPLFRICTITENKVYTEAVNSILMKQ
Experimental: as §1, §2, §3, §4, §5, §6, §7, §8, §9, §10, §11, §12, §13, §14, §15, §16, §17, §18

[7] = system: Tlp3; assay type: cell-based, C. jejuni 11168-O; conditions: for Tlp3 CR (chemoresponse): chemotaxis of mutant compared to WT strain
Experimental: (§19) The biological relevance of the binding specificities of the Tlp2,3,4 cluster was assessed by examining chemotactic responses of C. jejuni 11168-O tlp2, tlp3, and tlp4 wild-type (WT) and mutant strains using a nutrient-depleted chemotaxis assay. All ligands, with the exception of lysine and cysteine, interacted with Tlp2 and Tlp4 as attractants (Table 1), showing an ~1- to ~2-log decrease (P < 0.05) in migration toward the ligand compared to the WT strain.
(§20) Chemotaxis assays—the nutrient-depleted chemotaxis assay and the modified hard agar plug assay (tHAP)—were performed as previously described ([11], [34]). The chemotactic responses of all isogenic strains were compared to that of the C. jejuni 11168-O wild-type strain to distinguish between chemoattractants and chemorepellents. For the nutrient-depleted chemotaxis and modified hard agar plug (tHAP) assays, all differences were calculated as changes on a log10 scale. Controls were provided by using nonmotile (C. jejuni 81116 flaAB) and nonchemotactic (C. jejuni NCTC 11168 cheY) mutants ([69]) and mucin as negative and positive controls ([10]).

[8] = system: Tlp4; assay type: cell-based, C. jejuni 11168-O; conditions: nutrient-depleted chemotaxis assay
Experimental: as §19, §20

[9] = system: Tlp2; assay type: cell-based, C. jejuni 11168-O; conditions: for chemotactic response via Tlp2: nutrient-depleted chemotaxis assay
Experimental: as §19, §20

[10] = system: Δtlp3,4 mutant; assay type: cell-based
[11] = system: Tlp3; set-up: method as in PMID 24391495; conditions: cited from earlier work

SMILES | SPR response of single analyte [1] [RU] | Kd [2] [µM] | Kd [3] [µM] | Kd [4] [µM] | binding to Tlp2 on glycan/small molecule array [5] | binding to Tlp4 on glycan/small molecule array [6] | Tlp3 CR (chemoresponse) [7] | chemotactic response via Tlp4 [8] | Tlp2 CR (chemoresponse) ([9]; chemotaxis of mutant compared to WT strain) | increase in migration (Tlp2) ([9]; compared to the WT strain, P < 0.05) [log] | chemotactic response via Tlp2 [9] | cell migration toward ligand, Δtlp3,4 mutant [10] | chemotactic response via Tlp3 [11] | chemotactic response via Tlp3 ([7]; nutrient-depleted chemotaxis assay)
C[C@H](O)[C@@H](O)[C@@H](O)[C@H](O)C=O [Fucose] | 9.86 | 41.9 ± 13.2 | 66.9 ± 14.6 | 46.6 ± 16.1 | interacted | interacted |  |  |  |  |  |  |  | 
NCCCC[C@H](N)C(=O)O [Lysine] |  | 16.1 ± 9.1 | 27.3 ± 5.9 | 14.5 ± 4.8 | bound | bound | R | attractant | R | 1.4 | repellent | no change in migration | repellent | 
CC(=O)N[C@H]1[C@H]([C@H](O)[C@H](O)CO)OC(O)(C(=O)O)C[C@@H]1O (stereo partly drawn) [Sialic acid] |  | 36.8 ± 3 | 17.3 ± 4.4 | 16.6 ± 2 | interacted | interacted | R | attractants |  |  | attractants |  |  | repellents
